Experiments:
Assay in all cases: metabolism of 3 by recombinant human P450
Assay type in all cases: in vitro ADME
P450 1A1 = target: T1, P450 1A1 (Homo sapiens, UniProt P04798); conditions: recombinant P450 1A1, preliminary screen
T1 construct: made in house; host or cells: Escherichia coli, bacterial membrane fraction, bicistronic vector
T1 sequence (P04798 1-512): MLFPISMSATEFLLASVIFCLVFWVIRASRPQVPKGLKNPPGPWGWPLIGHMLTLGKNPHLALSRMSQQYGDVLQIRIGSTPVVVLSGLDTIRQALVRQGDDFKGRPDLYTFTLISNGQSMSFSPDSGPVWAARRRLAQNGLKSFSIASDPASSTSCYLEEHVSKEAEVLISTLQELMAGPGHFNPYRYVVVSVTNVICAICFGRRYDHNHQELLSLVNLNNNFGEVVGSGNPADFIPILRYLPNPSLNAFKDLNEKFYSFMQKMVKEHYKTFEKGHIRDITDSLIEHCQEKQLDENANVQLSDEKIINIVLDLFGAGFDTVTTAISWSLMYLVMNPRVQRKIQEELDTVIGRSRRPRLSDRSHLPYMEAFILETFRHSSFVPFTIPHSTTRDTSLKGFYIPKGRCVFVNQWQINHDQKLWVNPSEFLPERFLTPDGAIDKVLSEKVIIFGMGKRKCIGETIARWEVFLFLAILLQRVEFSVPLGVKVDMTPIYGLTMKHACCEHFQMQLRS
Excerpt: (§1) Recombinant P450s were co-expressed with hNPR in Escherichia coli according to the general procedures outlined previously. Recombinant P450 preparations were obtained from bacteria transformed with bicistronic expression vectors for P450s 1A1, 1A2, 2D6, 2E1 and 3A4 [6]; 1B1 [10]; 2A6 [8]; P450 2B6 [11]; 2C9 (wild type; P450 2C9*1) and 2C19 [12]; 3A5 and 3A7 [12] and 4A11 (D. Kim and F. P. Guengerich, unpublished data). cDNAs for P450s 2C8 and 2C18 were obtained from Prof D. J. Birkett (Flinders University of South Australia) and Prof. Philippe Beaune (INSERM U490, Universite Rene Descartes, Paris V, France) respectively, and bicistronic constructs in pCW were made according to previously published methods. Membranes from cells transformed with the monocistronic expression vector for recombinant human reductase, pCW′/hNPR, were used as a negative control. Expression of P450s and preparation of bacterial membrane fractions was done according to established methods.
(§2) Incubations (0.2 mL) with recombinant enzyme preparations were performed as described above except that bacterial membrane preparations were used at 0.1 μM P450. For P450s 3A4 and 3A5, reductase concentrations were supplemented to two fold the P450 concentration by addition of membranes from cells expressing reductase alone. For P450s 2C9 and 2C19, reductase concentrations were supplemented to five fold the P450 concentration. Negative controls contained bacterial membranes derived from cells transformed with the empty expression vector alone (“pCW”) or cells expressing only reductase (“hNPR”). Negative controls contained membranes added at total protein (“pCW”) or reductase “hNPR”) concentrations at the upper limit of those present in incubations with recombinant P450 preparations.
(§3) A preliminary screen was performed to investigate metabolism of 3 by recombinant human P450s.

P450 2C8 = target: T2, P450 2C8 (Homo sapiens, UniProt P10632); conditions: recombinant P450 2C8, preliminary screen
T2 construct: made in house; host or cells: Escherichia coli, bacterial membrane fraction, bicistronic construct in pCW
T2 sequence (P10632 1-490): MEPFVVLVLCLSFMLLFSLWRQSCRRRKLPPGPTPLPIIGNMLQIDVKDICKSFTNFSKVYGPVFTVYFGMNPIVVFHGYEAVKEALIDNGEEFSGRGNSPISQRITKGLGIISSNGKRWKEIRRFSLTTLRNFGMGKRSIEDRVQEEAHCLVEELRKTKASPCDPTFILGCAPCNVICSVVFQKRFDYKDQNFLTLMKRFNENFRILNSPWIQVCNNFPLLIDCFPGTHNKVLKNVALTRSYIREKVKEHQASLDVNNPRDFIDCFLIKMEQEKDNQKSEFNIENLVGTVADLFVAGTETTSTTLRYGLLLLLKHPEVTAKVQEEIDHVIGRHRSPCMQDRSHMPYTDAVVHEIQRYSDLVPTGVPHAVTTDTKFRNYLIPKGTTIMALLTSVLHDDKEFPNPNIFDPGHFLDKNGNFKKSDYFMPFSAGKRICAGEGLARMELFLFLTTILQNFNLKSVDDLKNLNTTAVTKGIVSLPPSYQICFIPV
Excerpt: as §1, §2, §3

P450 3A4 = conditions: recombinant P450 3A4, preliminary screen
Excerpt: as §1, §2, §3

P450 1B1 = target: T3, P450 1B1 (Homo sapiens, UniProt Q16678); conditions: recombinant P450 1B1, preliminary screen
T3 construct: made in house; host or cells: Escherichia coli, bacterial membrane fraction, bicistronic vector
T3 sequence (Q16678 1-543): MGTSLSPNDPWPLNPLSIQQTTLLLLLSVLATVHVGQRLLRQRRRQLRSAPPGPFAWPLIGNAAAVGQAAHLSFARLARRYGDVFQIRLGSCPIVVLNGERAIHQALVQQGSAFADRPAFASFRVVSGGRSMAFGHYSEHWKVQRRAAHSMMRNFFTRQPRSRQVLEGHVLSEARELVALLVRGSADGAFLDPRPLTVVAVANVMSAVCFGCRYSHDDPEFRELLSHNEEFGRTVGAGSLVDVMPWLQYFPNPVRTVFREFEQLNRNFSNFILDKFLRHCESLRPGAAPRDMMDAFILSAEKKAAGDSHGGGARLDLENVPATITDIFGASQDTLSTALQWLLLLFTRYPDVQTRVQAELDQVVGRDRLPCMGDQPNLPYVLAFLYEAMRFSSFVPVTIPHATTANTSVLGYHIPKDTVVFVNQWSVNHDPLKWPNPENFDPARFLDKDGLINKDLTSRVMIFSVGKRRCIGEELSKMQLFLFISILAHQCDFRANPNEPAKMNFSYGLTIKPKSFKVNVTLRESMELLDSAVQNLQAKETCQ
Excerpt: as §1, §2, §3

P450 2D6 = target: T4, P450 2D6 (Homo sapiens, UniProt P10635); conditions: recombinant P450 2D6, preliminary screen
T4 construct: made in house; host or cells: Escherichia coli, bacterial membrane fraction, bicistronic vector
T4 sequence (P10635 whole entry): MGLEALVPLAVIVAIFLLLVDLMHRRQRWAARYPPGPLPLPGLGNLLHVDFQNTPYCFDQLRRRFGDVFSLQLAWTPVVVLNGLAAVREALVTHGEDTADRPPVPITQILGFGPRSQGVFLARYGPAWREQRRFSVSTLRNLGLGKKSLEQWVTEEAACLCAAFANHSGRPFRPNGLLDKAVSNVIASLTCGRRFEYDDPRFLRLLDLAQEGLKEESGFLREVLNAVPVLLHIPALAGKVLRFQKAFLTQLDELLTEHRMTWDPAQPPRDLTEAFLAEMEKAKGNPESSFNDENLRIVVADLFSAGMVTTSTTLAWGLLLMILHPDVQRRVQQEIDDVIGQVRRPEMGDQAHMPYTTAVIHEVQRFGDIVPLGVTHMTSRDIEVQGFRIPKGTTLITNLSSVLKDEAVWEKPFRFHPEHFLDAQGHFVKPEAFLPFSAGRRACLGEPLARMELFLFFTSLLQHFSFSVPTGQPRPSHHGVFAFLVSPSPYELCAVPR
Excerpt: as §1, §2, §3

P450 2C19 = target: T5, P450 2C19 (Homo sapiens, UniProt P33261); conditions: recombinant P450 2C19, preliminary screen
T5 construct: made in house; host or cells: Escherichia coli, bacterial membrane fraction, bicistronic vector; reductase topped up to five fold the P450 concentration
T5 sequence (P33261 whole entry): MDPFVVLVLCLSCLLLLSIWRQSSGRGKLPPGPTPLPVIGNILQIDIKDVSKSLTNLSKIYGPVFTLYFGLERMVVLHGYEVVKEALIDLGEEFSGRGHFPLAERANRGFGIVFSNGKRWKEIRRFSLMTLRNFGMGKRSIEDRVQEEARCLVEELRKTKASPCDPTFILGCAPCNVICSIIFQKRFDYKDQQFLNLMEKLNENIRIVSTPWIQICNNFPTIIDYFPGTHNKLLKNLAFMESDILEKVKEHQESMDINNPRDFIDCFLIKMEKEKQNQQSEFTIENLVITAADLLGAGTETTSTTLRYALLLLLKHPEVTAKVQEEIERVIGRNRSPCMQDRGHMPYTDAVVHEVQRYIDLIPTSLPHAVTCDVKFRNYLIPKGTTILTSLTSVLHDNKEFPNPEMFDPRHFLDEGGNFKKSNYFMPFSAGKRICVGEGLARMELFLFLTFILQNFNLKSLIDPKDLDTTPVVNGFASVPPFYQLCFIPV
Excerpt: as §1, §2, §3

P450 2C9 = target: T6, P450 2C9 (Homo sapiens, UniProt P11712); conditions: recombinant P450 2C9, preliminary screen
T6 construct: made in house; host or cells: Escherichia coli, bacterial membrane fraction, bicistronic vector; reductase topped up to five fold the P450 concentration
T6 sequence (P11712 whole entry): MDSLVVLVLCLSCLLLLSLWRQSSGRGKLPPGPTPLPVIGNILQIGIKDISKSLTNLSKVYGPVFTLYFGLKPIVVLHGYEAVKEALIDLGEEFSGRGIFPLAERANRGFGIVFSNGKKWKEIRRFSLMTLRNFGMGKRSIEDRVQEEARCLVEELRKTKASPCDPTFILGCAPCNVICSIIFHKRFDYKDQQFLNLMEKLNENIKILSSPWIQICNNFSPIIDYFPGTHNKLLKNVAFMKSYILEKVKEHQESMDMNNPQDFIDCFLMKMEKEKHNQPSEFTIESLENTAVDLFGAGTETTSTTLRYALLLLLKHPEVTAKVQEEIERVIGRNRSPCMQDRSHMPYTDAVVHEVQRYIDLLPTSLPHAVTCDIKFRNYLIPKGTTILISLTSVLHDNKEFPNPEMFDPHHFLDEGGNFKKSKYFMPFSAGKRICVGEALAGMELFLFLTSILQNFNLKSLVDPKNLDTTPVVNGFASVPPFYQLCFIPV
Excerpt: as §1, §2, §3

P450 3A5 = target: T7, P450 3A5 (Homo sapiens, UniProt P20815); conditions: recombinant P450 3A5, preliminary screen
T7 construct: made in house; host or cells: Escherichia coli, bacterial membrane fraction, bicistronic vector; reductase topped up to two fold the P450 concentration
T7 sequence (P20815 whole entry): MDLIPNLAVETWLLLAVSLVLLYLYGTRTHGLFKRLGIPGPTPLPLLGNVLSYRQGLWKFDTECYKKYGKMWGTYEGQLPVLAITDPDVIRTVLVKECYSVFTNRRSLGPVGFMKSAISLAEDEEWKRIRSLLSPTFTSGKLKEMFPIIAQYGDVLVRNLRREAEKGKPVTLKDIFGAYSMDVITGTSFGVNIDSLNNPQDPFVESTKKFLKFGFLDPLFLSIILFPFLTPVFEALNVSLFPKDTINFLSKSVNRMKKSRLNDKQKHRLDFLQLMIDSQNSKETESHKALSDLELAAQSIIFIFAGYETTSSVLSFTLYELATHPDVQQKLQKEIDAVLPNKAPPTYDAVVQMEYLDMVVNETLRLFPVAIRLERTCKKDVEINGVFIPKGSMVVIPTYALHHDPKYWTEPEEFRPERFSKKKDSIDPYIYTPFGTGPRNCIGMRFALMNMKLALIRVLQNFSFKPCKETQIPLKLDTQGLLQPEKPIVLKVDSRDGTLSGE
Excerpt: as §1, §2, §3

Measured: consumption of 3

C/C=C\C=C/CC/C=C/C=C/C(=O)NCC(C)C [alkylamide 3, (2E,4E,8Z,10Z)—N-isobutyldodeca-2,4,8,10-tetraenamide]
observed: all assays above

Reference: patent US9205121B2, “Echinacea formulation” (Integria Healthcare (Australia) PTY LTD, priority 2004, dated 2015)
